Where “and” joins values, the source holds several entries; their conditions need not be identical. Equal values may be shown once.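 Interpolation was linear, between the two tested concentrations surrounding the appropriate level; five concentrations were tested over 48 hours in 96-well plates. At the GI50, growth is halved. At the TGI there is no net growth.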
What follows are compounds tested on HCC-2998 colon (assay: inhibition of tumour cell growth, NCI panel, 48 h).

SMILES	GI50 [µM]	TGI [µM]
Nc1c(C(=O)Nc2ccccn2)sc2nc3c(cc12)C(=O)CCC3	3.15	> 100
Cc1nc2c(Br)cc(Br)cc2c(=O)n1-c1nnc(-c2cccc(Cl)c2Cl)c(N)n1	17.6	41.3
N#CC(I)CS(=O)(=O)c1ccccc1 (centres undefined)	17.7	31.8
COc1ccc2c(=O)oc3c(OC)cc(CCN(C)C)c4c(=O)oc1c2c34		25.2
COc1ccc(Cl)cc1NC(=O)c1ccc(NC2=C(Cl)C(=O)N(Cc3ccccc3)C2=O)cc1	14.1	28.8
CO[C@@H]1CC[C@]2(C)OC[C@H](C)[C@@H]3C[C@@H](C)[C@@H](OC(C)=O)[C@@H]4[C@H]3[C@@H]2O[C@H]4C[C@@]1(C)O	> 100	> 100
CSC[C@H](NC(=O)COc1cccc2cnccc12)C(=O)NC(Cc1ccccc1)C(O)C(=O)N1CSC[C@H]1C(=O)NC(C)(C)C (some centres undefined)		> 100
CCN(CCNS(C)(=O)=O)c1ccc(N)c(C)c1	16.8	33.9
CN(Cc1cnc2nc(N)nc(N)c2n1)c1ccc(C(=O)N[C@@H](CCS(=O)(=O)O)C(=O)O)cc1		> 100

These compounds were tested on SNB-75 CNS (assay: inhibition of tumour cell growth, NCI panel, 48 h).

SMILES	GI50	TGI
Nc1c(C(=O)Nc2ccccn2)sc2nc3c(cc12)C(=O)CCC3	0.646 µM	22.2 µM
Cc1nc2c(Br)cc(Br)cc2c(=O)n1-c1nnc(-c2cccc(Cl)c2Cl)c(N)n1	33.6 µM	> 100 µM
N#CC(I)CS(=O)(=O)c1ccccc1 (centres undefined)	15.6 µM	36 µM
COc1ccc2c(=O)oc3c(OC)cc(CCN(C)C)c4c(=O)oc1c2c34	16.4 µM and 8.17 µM	31.5 µM and 17.2 µM
C=C(C)[C@@H]1CC[C@]2(CN)CC[C@]3(C)[C@H](CC[C@@H]4[C@@]5(C)CCCNC(C)(C)[C@@H]5CC[C@]43C)[C@@H]12	1.63 µM	3.11 µM
CO[C@@H]1CC[C@]2(C)OC[C@H](C)[C@@H]3C[C@@H](C)[C@@H](OC(C)=O)[C@@H]4[C@H]3[C@@H]2O[C@H]4C[C@@]1(C)O	> 100 µM	> 100 µM
CSC[C@H](NC(=O)COc1cccc2cnccc12)C(=O)NC(Cc1ccccc1)C(O)C(=O)N1CSC[C@H]1C(=O)NC(C)(C)C (some centres undefined)		> 100 µM
O=[N+]([O-])c1cccnc1N=Nc1c(O)[nH]c2ccccc12		44.3 µM
CCN(CCNS(C)(=O)=O)c1ccc(N)c(C)c1	18.8 µM	37.8 µM
CN(Cc1cnc2nc(N)nc(N)c2n1)c1ccc(C(=O)N[C@@H](CCS(=O)(=O)O)C(=O)O)cc1	18.2 µM	> 100 µM

These compounds were tested on SK-MEL-5 melanoma (assay: inhibition of tumour cell growth, NCI panel, 48 h).

SMILES	GI50 [µM]	TGI
Nc1c(C(=O)Nc2ccccn2)sc2nc3c(cc12)C(=O)CCC3	0.444	> 100 µM
Cc1nc2c(Br)cc(Br)cc2c(=O)n1-c1nnc(-c2cccc(Cl)c2Cl)c(N)n1	17.2	39 µM
N#CC(I)CS(=O)(=O)c1ccccc1 (centres undefined)	17.7	31.9 µM
COc1ccc2c(=O)oc3c(OC)cc(CCN(C)C)c4c(=O)oc1c2c34		24.7 µM and 14.7 µM
COc1ccc(Cl)cc1NC(=O)c1ccc(NC2=C(Cl)C(=O)N(Cc3ccccc3)C2=O)cc1	47.4	> 100 µM
C=C(C)[C@@H]1CC[C@]2(CN)CC[C@]3(C)[C@H](CC[C@@H]4[C@@]5(C)CCCNC(C)(C)[C@@H]5CC[C@]43C)[C@@H]12	1.56	3 µM
CCSc1nc(N=Cc2ccccc2O)c2cn[nH]c2n1	23.8	65.9 µM
CO[C@@H]1CC[C@]2(C)OC[C@H](C)[C@@H]3C[C@@H](C)[C@@H](OC(C)=O)[C@@H]4[C@H]3[C@@H]2O[C@H]4C[C@@]1(C)O	> 100	> 100 µM
CCN(CCNS(C)(=O)=O)c1ccc(N)c(C)c1	11.9	24.6 µM
CN(Cc1cnc2nc(N)nc(N)c2n1)c1ccc(C(=O)N[C@@H](CCS(=O)(=O)O)C(=O)O)cc1		> 100 µM

These compounds were tested on HCT-116 colon (assay: inhibition of tumour cell growth, NCI panel, 48 h).

SMILES	GI50	TGI
Nc1c(C(=O)Nc2ccccn2)sc2nc3c(cc12)C(=O)CCC3	0.52 µM	> 100 µM
Cc1nc2c(Br)cc(Br)cc2c(=O)n1-c1nnc(-c2cccc(Cl)c2Cl)c(N)n1	12.8 µM	34.9 µM
N#CC(I)CS(=O)(=O)c1ccccc1 (centres undefined)	1.66 µM	3.11 µM
COc1ccc2c(=O)oc3c(OC)cc(CCN(C)C)c4c(=O)oc1c2c34	14.3 µM and 5.27 µM	27.9 µM and 11.9 µM
COc1ccc(Cl)cc1NC(=O)c1ccc(NC2=C(Cl)C(=O)N(Cc3ccccc3)C2=O)cc1	37.7 µM	> 100 µM
C=C(C)[C@@H]1CC[C@]2(CN)CC[C@]3(C)[C@H](CC[C@@H]4[C@@]5(C)CCCNC(C)(C)[C@@H]5CC[C@]43C)[C@@H]12	1.42 µM	2.96 µM
CCSc1nc(N=Cc2ccccc2O)c2cn[nH]c2n1	25.7 µM	> 100 µM
CSC[C@H](NC(=O)COc1cccc2cnccc12)C(=O)NC(Cc1ccccc1)C(O)C(=O)N1CSC[C@H]1C(=O)NC(C)(C)C (some centres undefined)		> 100 µM
O=[N+]([O-])c1cccnc1N=Nc1c(O)[nH]c2ccccc12		40 µM
CCN(CCNS(C)(=O)=O)c1ccc(N)c(C)c1	2.5 µM	6.2 µM

What follows are compounds tested on A549 NSCLC (assay: inhibition of tumour cell growth, NCI panel, 48 h).

SMILES	GI50	TGI
Nc1c(C(=O)Nc2ccccn2)sc2nc3c(cc12)C(=O)CCC3	1.78 µM	> 100 µM
Cc1nc2c(Br)cc(Br)cc2c(=O)n1-c1nnc(-c2cccc(Cl)c2Cl)c(N)n1	25.6 µM	85.1 µM
N#CC(I)CS(=O)(=O)c1ccccc1 (centres undefined)	22.7 µM	47.6 µM
COc1ccc2c(=O)oc3c(OC)cc(CCN(C)C)c4c(=O)oc1c2c34	21.3 µM and 8.46 µM	37 µM and 20.2 µM
COc1ccc(Cl)cc1NC(=O)c1ccc(NC2=C(Cl)C(=O)N(Cc3ccccc3)C2=O)cc1	> 100 µM	> 100 µM
C=C(C)[C@@H]1CC[C@]2(CN)CC[C@]3(C)[C@H](CC[C@@H]4[C@@]5(C)CCCNC(C)(C)[C@@H]5CC[C@]43C)[C@@H]12	1.95 µM	3.71 µM
CCSc1nc(N=Cc2ccccc2O)c2cn[nH]c2n1	46.2 µM	> 100 µM
CO[C@@H]1CC[C@]2(C)OC[C@H](C)[C@@H]3C[C@@H](C)[C@@H](OC(C)=O)[C@@H]4[C@H]3[C@@H]2O[C@H]4C[C@@]1(C)O	> 100 µM	> 100 µM
CSC[C@H](NC(=O)COc1cccc2cnccc12)C(=O)NC(Cc1ccccc1)C(O)C(=O)N1CSC[C@H]1C(=O)NC(C)(C)C (some centres undefined)		> 100 µM
O=[N+]([O-])c1cccnc1N=Nc1c(O)[nH]c2ccccc12		47.7 µM
CCN(CCNS(C)(=O)=O)c1ccc(N)c(C)c1	25 µM	51 µM
CN(Cc1cnc2nc(N)nc(N)c2n1)c1ccc(C(=O)N[C@@H](CCS(=O)(=O)O)C(=O)O)cc1		> 100 µM

What follows are compounds tested on DU-145 prostate (assay: inhibition of tumour cell growth, NCI panel, 48 h).

SMILES	GI50 [µM]	TGI [µM]
Nc1c(C(=O)Nc2ccccn2)sc2nc3c(cc12)C(=O)CCC3	1.98	> 100
Cc1nc2c(Br)cc(Br)cc2c(=O)n1-c1nnc(-c2cccc(Cl)c2Cl)c(N)n1	27.8	> 100

— PubChem BioAssay (NCI)
